Measured values taken from paper PMC7613620, “Reaction hijacking of tyrosine tRNA synthetase as a whole-of-life-cycle antimalarial strategy” (Science (New York, N.Y.), 2022).
Read-outs that look alike come from different tables or passages of the source.

Columns and labels:
P. falciparum (3D7) = P. falciparum (3D7) culture growth inhibition, 72 h; format: cell-based, Plasmodium falciparum; settings: for IC50: Plasmodium falciparum
Procedure: (1 picture or pasted object on this page, not shown here)
553 Sigma-Aldrich) for 48-72 h. For drug pulse assays, tightly synchronized parasites (1-1.5% parasitemia,
554 0.2% final hematocrit) were added to the plates and incubated for 3 h. Drugs were removed and the
555 parasitemia assessed in the trophozoite stage of the next cycle.
557 Compounds were tested against a range of drug resistant field isolates and laboratory strains using a
558 modified [3H]-hypoxanthine incorporation assay, as previously reported (46). Field isolates 7G8, Cam3.1,
559 Dd2, K1, TM90C2B and NF54 were obtained from MR4 (www.beiresources.org).
561 Mammalian cell culture experiments
562 The HepG2 (Human hepatocyte carcinoma) cell line was procured from ATCC (American Type
563 Culture Collection, Manassas, USA; HB-8065) and viability assessed using Cell Titer-GLO luminescent
564 cell viability assay reagents (Promega, catalogue number: G7570) (47, 48). For the assay, 2000 cells/well
565 were plated in 384-well plates 24 h prior to the experiment and incubated at 37°C in a CO2 incubator. The
566 medium was removed and cells were treated with fresh medium containing either vehicle (0.5% DMSO)
567 or serially diluted test compounds or doxorubicin (1.3 nM to 25 µM) in a final volume of 50 µl/well and
568 further incubated for 72 h at 37°C in a CO2 incubator.
569 were treated with 5 µl of 1% Triton X-100 (final assay conc. 0.1%). Following incubation, 25 µl of medium
570 was discarded and 25 µl of Cell Titer-GLO reagent was added to each well and the plate was kept on a plate
571 shaker for 15 min at 25°C with shaking at 300 rpm. Luminescence signals were measured in a Spectramax
572 M5 reader (Molecular Devices).
574 H1650 is a human lung cancer derived ATG7-null cell line (49) that can be used to assess effects on targets
576 adenocarcinoma; bronchoalveolar carcinoma). Other cells lines used are: H460 (NCI-H460; human lung;
577 carcinoma; large cell lung cancer; ATCC: HTB-177); and HCT116 (human colon; colorectal carcinoma;
578 ATCC: CCL-247; Lot : 5056139). Each of the cell lines was received from the American Type Culture
579 Collection (ATCC) and passaged twice before freezing. Cells were cultured in the presence or absence of
580 inhibitors and cell viability was assessed by comparing the ATP content in compound-treated wells with
581 that in DMSO-treated wells as previously described (11).
583 HeLa cells (human cervical adenocarcinoma; genome sequenced (Garvin Institute, Australia) and verified

[1] = tested on: P. falciparum Pf3D70087/N9; experiment: Therapeutic efficacy in SCID mouse P. falciparum model; format: in vivo, Plasmodium falciparum; settings: single dose 50 mg/kg i.p.
Source text: 589 by genomic sequencing and were routinely tested for mycoplasma contamination using MycoAlert™
590 Mycoplasma Detection Kit (Lonza, Capsugel Australia).
592 E1-E2 Transthiolation Assays
593 An Homogeneous Time-Resolved Fluorescence (HTRF) enzyme assay was employed to evaluate
594 compound activity against ATG7 as previously described (11). In this assay, a Flag-tagged ATG8 homolog
595 (GABA type A receptor-associated protein; GABARAP) is activated by ATG7 and then transthiolated to a
596 GST-tagged E2 (ATG3). The product of the enzyme reaction, Flag-GABARAP-ATG3-GST, is quantified
597 by measuring FRET between Europium-Cryptate labelled monoclonal anti-Flag M2 (CisBio International,
598 Cat# 61FG2KLB) and PHYCOLINK goat anti-GST allophycocyanin (Prozyme, PJ252p1). The activation
599 and transthiolation of ubiquitin by Ubiquitin Activating Enzyme, activation and transthiolation of NEDD8 […]
605 Activity against male gametes was assessed using the dual gamete formation assay (PfDGFA)(32). […]
609 exflagellation was recorded and quantified by automated microscopy. […]
610 express Pfs25 on their surface after 24 h at 28°C was assessed by single-image fluorescence microscopy. […]
624 falciparum (Pf3D70087/N9) on day 0. The antimalarial efficacy was assessed following administration (i.p.) […]
638 precipitated with acetonitrile and the remaining compound was assessed by LC-MS/MS in the selected reaction […]

Nc1ncnc2c1c(OC(F)F)nn2[C@@H]1O[C@H](COS(N)(=O)=O)[C@@H](O)[C@H]1O [ML901]
higher selectivity than AMS (P. falciparum (3D7); P. falciparum versus mammalian cell lines, compared with AMS): > 1,000 fold
IC50 (P. falciparum (3D7); read-out: Pf3D7 IC50(72h), P. falciparum 3D7, 72 h): 2 ± 0.1 nM
IC50 (P. falciparum (3D7); 3D7 parent of the in vitro evolution experiment, 72 h, read-out: IC50 (3D7)): 1.9 ± 0.1 nM
selectivity towards P. falciparum (P. falciparum (3D7); versus different mammalian cell lines): 800- to 5,000 fold
effect on parasitemia ([1]; SCID mice engrafted with P. falciparum infected human RBCs): reduction of parasitemia to baseline
toxicity ([1]; SCID mice): no evidence of toxicity
